Experimental data taken from PubChem BioAssay AID248 (DTP/NCI, 2004).
Values joined by “and” are separate entries in the source; they are usually repeats but may differ in a detail not shown here. Equal values may be shown once. Toxic doses and inconclusive results are not listed. Cut-off read from the data, not from the text of the source: active = T/C of 150% or more; inactive = T/C below 125%.

Tested on: L1210 leukemia ip in BDF1 mice, survival T/C
Assay: NCI In Vivo Anticancer Drug Screen. Data for tumor model L1210 Leukemia (intraperitoneal) in B6D2F1 (BDF1) mice
Settings: endpoint: mean survival time, higher = longer survival
How it was run: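 Transplantable tumor model; survival measured in treated vs vehicle control mice. Value = treated/control.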

[1] = dose: 100.0 mg/kg/injection, schedule: Q01DX001 (ip), vehicle: saline
[2] = dose: 200.0 mg/kg/injection, schedule: Q01DX001 (ip), vehicle: saline
[3] = dose: 50.0 mg/kg/injection, schedule: Q04DX002 (ip), vehicle: saline with Tween-80
[4] = dose: 400.0 mg/kg/injection, schedule: Q04DX002 (ip), vehicle: saline with Tween-80
[5] = dose: 100.0 mg/kg/injection, schedule: Q04DX003 (ip), vehicle: Klucel (hydroxypropylcellulose) (HPC)
[6] = dose: 200.0 mg/kg/injection, schedule: Q04DX003 (ip), vehicle: Klucel (hydroxypropylcellulose) (HPC)
[7] = dose: 100.0 mg/kg/injection, schedule: Q01DX001 (ip), vehicle: carboxymethylcellulose (CMC)
[8] = dose: 200.0 mg/kg/injection, schedule: Q01DX001 (ip), vehicle: carboxymethylcellulose (CMC)
[9] = dose: 400.0 mg/kg/injection, schedule: Q01DX001 (ip), vehicle: carboxymethylcellulose (CMC)
[10] = dose: 400.0 mg/kg/injection, schedule: Q04DX003 (ip), vehicle: Klucel (hydroxypropylcellulose) (HPC)
[11] = dose: 400.0 mg/kg/injection, schedule: Q01DX001 (ip), vehicle: saline
[12] = dose: 100.0 mg/kg/injection, schedule: Q04DX003 (ip), vehicle: saline with Tween-80
[13] = dose: 200.0 mg/kg/injection, schedule: Q04DX003 (ip), vehicle: saline with Tween-80
[14] = dose: 400.0 mg/kg/injection, schedule: Q04DX003 (ip), vehicle: saline with Tween-80

Measured: T/C

O=C1CC2OCC=C3C[N+]4(SS(=O)(=O)[O-])CCC56c7ccccc7N1C5C2C3CC64 (stereo not drawn)
inactive: dose: 0.15 mg/kg/injection, schedule: Q01DX009 (ip), vehicle: saline 93 % of control | dose: 0.31 mg/kg/injection, schedule: Q01DX009 (ip), vehicle: saline 95 % of control | dose: 0.31 mg/kg/injection, schedule: Q04DX003 (ip), vehicle: acetone 108 % of control | dose: 0.62 mg/kg/injection, schedule: Q01DX009 (ip), vehicle: saline 93 % of control | dose: 0.62 mg/kg/injection, schedule: Q04DX003 (ip), vehicle: acetone 108 % of control | dose: 0.92 mg/kg/injection, schedule: Q01DX009 (ip), vehicle: saline 92 % of control | dose: 1.25 mg/kg/injection, schedule: Q01DX001 (ip), vehicle: saline 98 % of control | dose: 1.25 mg/kg/injection, schedule: Q04DX003 (ip), vehicle: acetone 88 % of control | dose: 1.4 mg/kg/injection, schedule: Q01DX009 (ip), vehicle: saline 92 % of control

COc1cc2cc(C)[nH]c2cc1OC
inactive: dose: 50.0 mg/kg/injection, schedule: Q01DX001 (ip), vehicle: saline 101 % of control | [1] 95 % of control | [2] 98 % of control

O=[N+]([O-])c1ccc(/C=C/c2nnc(/C=C/c3ccc([N+](=O)[O-])cc3)o2)cc1
inactive: [3] 100 % of control | dose: 100.0 mg/kg/injection, schedule: Q04DX002 (ip), vehicle: saline with Tween-80 89 % of control | dose: 200.0 mg/kg/injection, schedule: Q04DX002 (ip), vehicle: saline with Tween-80 92 % of control | [4] 100 % of control

CCOP(=O)(CCl)NC12CC3CC(CC(C3)C1)C2 (stereo not drawn)
inactive: [5] 96 % of control | [6] 100 % of control

COc1ccc(C(OC(=O)c2ccc([N+](=O)[O-])cc2)c2ccccc2)cc1 (stereo not drawn)
inactive: [7] 88 % of control | [8] 91 % of control | [9] 93 % of control

CNNC(=O)c1ccccc1
inactive: dose: 6.25 mg/kg/injection, schedule: Q04DX002 (ip), vehicle: saline 119 % of control | dose: 12.5 mg/kg/injection, schedule: Q04DX002 (ip), vehicle: saline 97 % of control | dose: 25.0 mg/kg/injection, schedule: Q04DX002 (ip), vehicle: saline 97 % of control | dose: 50.0 mg/kg/injection, schedule: Q04DX002 (ip), vehicle: saline 94 % of control and 97 % of control | dose: 100.0 mg/kg/injection, schedule: Q04DX002 (ip), vehicle: saline 98 % of control

Cc1cccc(C2CCCCC2OS(C)(=O)=O)c1 (stereo not drawn)
inactive: [7] 101 % of control | [8] 108 % of control | [9] 95 % of control

C1=C(/c2ccccc2)CCCCCC/1
inactive: dose: 37.5 mg/kg/injection, schedule: Q01DX009 (ip), vehicle: saline 101 % of control | dose: 75.0 mg/kg/injection, schedule: Q01DX001 (ip), vehicle: acetone 98 % of control | dose: 75.0 mg/kg/injection, schedule: Q01DX009 (ip), vehicle: saline 90 % of control | dose: 150.0 mg/kg/injection, schedule: Q01DX001 (ip), vehicle: acetone 93 % of control | dose: 150.0 mg/kg/injection, schedule: Q01DX009 (ip), vehicle: saline 103 % of control | dose: 300.0 mg/kg/injection, schedule: Q01DX001 (ip), vehicle: acetone 91 % of control

Cc1cccc(OCCOC(=O)Nc2ccccc2C(F)(F)F)c1
inactive: [5] 87 % of control | [6] 88 % of control | [10] 90 % of control

CCCCCCCCCCCCCCCCCSc1cccc(C)c1
inactive: [5] 93 % of control | [6] 88 % of control

CCCOc1ccc(C)cc1
inactive: [1] 93 % of control | [2] 108 % of control

CS(=O)(=O)N(CC(=O)O)Cc1cccc(Br)c1
inactive: dose: 50.0 mg/kg/injection, schedule: Q01DX005 (ip), vehicle: other 107 % of control | dose: 100.0 mg/kg/injection, schedule: Q01DX005 (ip), vehicle: other 120 % of control | dose: 200.0 mg/kg/injection, schedule: Q01DX005 (ip), vehicle: other 100 % of control

O=C(S)CN1C(=O)c2ccccc2C1=O
inactive: [7] 91 % of control | [8] 93 % of control | [9] 102 % of control

CC(=O)C(CN(C)C)c1ccccc1 (stereo not drawn)
inactive: dose: 12.5 mg/kg/injection, schedule: Q01DX009 (ip), vehicle: saline with Tween-80 91 % of control | dose: 12.5 mg/kg/injection, schedule: Q04DX002 (ip), vehicle: saline with Tween-80 102 % of control | dose: 25.0 mg/kg/injection, schedule: Q01DX009 (ip), vehicle: saline with Tween-80 98 % of control | dose: 25.0 mg/kg/injection, schedule: Q04DX002 (ip), vehicle: saline with Tween-80 102 % of control | dose: 50.0 mg/kg/injection, schedule: Q01DX009 (ip), vehicle: saline with Tween-80 89 % of control | dose: 50.0 mg/kg/injection, schedule: Q01DX009 (ip), vehicle: saline 103 % of control | [3] 109 % of control | dose: 200.0 mg/kg/injection, schedule: Q01DX009 (ip), vehicle: saline 90 % of control

CCOC(=O)Nc1cc(N)cc(NC(=O)OCC)c1
inactive: dose: 50.0 mg/kg/injection, schedule: Q01DX009 (ip), vehicle: Klucel (hydroxypropylcellulose) (HPC) 101 % of control | dose: 100.0 mg/kg/injection, schedule: Q01DX009 (ip), vehicle: Klucel (hydroxypropylcellulose) (HPC) 104 % of control | dose: 200.0 mg/kg/injection, schedule: Q01DX009 (ip), vehicle: Klucel (hydroxypropylcellulose) (HPC) 106 % of control

COCCCNc1ncnc2[nH]ncc12
inactive: dose: 15.0 mg/kg/injection, schedule: Q01DX015 (ip), vehicle: saline 95 % of control | dose: 30.0 mg/kg/injection, schedule: Q01DX015 (ip), vehicle: saline 101 % of control | dose: 50.0 mg/kg/injection, schedule: Q04DX003 (ip), vehicle: saline 96 % of control | dose: 60.0 mg/kg/injection, schedule: Q01DX015 (ip), vehicle: saline 97 % of control | [1] 106 % of control | dose: 100.0 mg/kg/injection, schedule: Q04DX003 (ip), vehicle: saline 98 % of control | dose: 120.0 mg/kg/injection, schedule: Q01DX015 (ip), vehicle: saline 110 % of control | [2] 106 % of control | dose: 200.0 mg/kg/injection, schedule: Q04DX003 (ip), vehicle: saline 100 % of control | [11] 116 % of control

O=C(O)c1ccc2c(c1)C(=O)c1ccccc1-2
inactive: [7] 107 % of control | [8] 100 % of control | [9] 107 % of control

Cn1c(=O)c2c(nc(CCC3CCCC3)n2C)n(C)c1=O
inactive: dose: 50.0 mg/kg/injection, schedule: Q01DX001 (ip), vehicle: carboxymethylcellulose (CMC) 92 % of control | [7] 97 % of control | [8] 90 % of control | [9] 97 % of control

ClC(Cl)=C(Cl)c1ccccc1
inactive: dose: 25.6 mg/kg/injection, schedule: Q04DX002 (ip), vehicle: saline with Tween-80 93 % of control | dose: 64.0 mg/kg/injection, schedule: Q04DX002 (ip), vehicle: saline with Tween-80 87 % of control | [12] 98 % of control | dose: 160.0 mg/kg/injection, schedule: Q04DX002 (ip), vehicle: saline with Tween-80 90 % of control | [13] 93 % of control | [4] 93 % of control | [14] 93 % of control

CCCCCC(O)C(O)CC(O)C(O)CCCCCCCC(=O)O (stereo not drawn)
inactive: [1] 89 % of control | [2] 105 % of control | [11] 96 % of control

COC1OC(CBr)C(OC(=O)c2ccccc2)C(OC(=O)c2ccccc2)C1OS(=O)(=O)c1ccc(C)cc1 (stereo not drawn)
inactive: dose: 50.0 mg/kg/injection, schedule: Q04DX002 (ip), vehicle: Klucel (hydroxypropylcellulose) (HPC) 97 % of control | dose: 100.0 mg/kg/injection, schedule: Q04DX002 (ip), vehicle: Klucel (hydroxypropylcellulose) (HPC) 87 % of control | dose: 200.0 mg/kg/injection, schedule: Q04DX002 (ip), vehicle: Klucel (hydroxypropylcellulose) (HPC) 97 % of control

CC1=NNC(=O)C1
inactive: dose: 50.0 mg/kg/injection, schedule: Q01DX009 (ip), vehicle: carboxymethylcellulose (CMC) 100 % of control | dose: 100.0 mg/kg/injection, schedule: Q01DX009 (ip), vehicle: carboxymethylcellulose (CMC) 114 % of control | [5] 89 % of control | [12] 112 % of control | dose: 200.0 mg/kg/injection, schedule: Q01DX009 (ip), vehicle: carboxymethylcellulose (CMC) 114 % of control | [6] 98 % of control | [13] 105 % of control | [10] 96 % of control | [14] 112 % of control
